{"source": "paper PMC5218480", "about": "(PLoS ONE, 2017)", "tested_on": "MV-4-11 cells", "test": "Gene expression microarray analysis (Affymetrix PrimeView) and GSEA", "assay_type": "cell-based, human", "details": "gene VPS36, vacuolar protein sorting 36 homolog; Azacitidine 1 mM; LIST F"}
{"smiles": "Nc1ncn([C@@H]2O[C@H](CO)[C@@H](O)[C@H]2O)c(=O)n1", "note": "[azacitidine]", "values": [{"measurement": "RFU, VPS36 (ProbeSet 11739960_a_at)", "value": 118.04, "unit": "RFU"}]}
